Laboratory results taken from US10052281B2, “Local administration-type pharmaceutical for improving dysphagia” (MEIJI SEIKA PHARMA CO., LTD., priority 2011, dated 2018).
“Also recorded” adds a separate entry of the source.

Tests used:
[1] = system: guinea pig dysphagia model induced by repeated administrations of haloperidol; test: Swallowing reflex (water drinking frequency) in dysphagia model induced by repeated administrations of haloperidol; format: in vivo; conditions: for water drinking frequency (dysphagia improving effect): oral (intragastric)
normal guinea pig = test: Swallowing reflex in normal guinea pig after local pharyngeal administration of substance P receptor antagonist; format: in vivo
Description: (§1) To 6 week-old female Hartley guinea pigs (330 to 390 g) habituated for 1 week after receipt, a physiological saline solution, or a haloperidol solution was injected subcutaneously in a dosage of 1 mg/kg approx. every 12 hours twice per day for 7 days. Thereafter, a guinea pig was fixed at extremities, and 500 μL of distilled water was injected over 5 sec through a device to a part just before the pharynx, and the total frequency of swallowing until 10 sec and 30 sec from the injection was measured based on a muscle movement in a pharyngeal site. Thereafter a physiological saline solution, or a haloperidol solution was injected again (1 mg/kg).
FK888 (10 μM, 50 μL/guinea pig), which is a substance P receptor antagonist, was administered locally with a spray device to a pharyngeal site of a guinea pig, and water drinking reflection frequency was measured in the same way as in Experiment 1.

[2] = system: guinea pig dysphagia model induced by repeated administrations of haloperidol; test: Swallowing reflex (water drinking frequency) in dysphagia model induced by repeated administrations of haloperidol; format: in vivo; conditions: local spray to pharyngeal mucosa, 100 μL of 50 μM aqueous solution, 2 hours after administration
[3] = system: blood pressure increase by intravenous administration of angiotensin I in a normal rat; test: Blood pressure increase induced by intravenous angiotensin I; conditions: oral, angiotensin I 300 ng/kg i.v. after 1 hour, SD male rats
Description: The respective dose of a captopril, or lisinopril aqueous solution was administered orally and the blood pressures were measured after 1 hour. Thereafter, angiotensin I was administered intravenously (300 ng/kg) to induce blood pressure increase and a change in the mean blood pressure was measured.

Hartley guinea pigs = test: Swallowing reflex (water drinking frequency) after repeated administrations of haloperidol; format: in vivo, guinea pig; conditions: haloperidol 1 mg/kg s.c. twice per day for 7 days, compared to physiological saline group
Description: as §1
The measurements were repeated totally 4 times at intervals of 1 min. […] Based on the result, the guinea pig was used as a dysphagia model induced by repeated administrations of haloperidol in the following experiments for evaluation of drug efficacy.

With C[C@H](CS)C(=O)N1CCC[C@H]1C(=O)O [captopril] the water drinking frequency ([1]; 100 μL of 50 μM aqueous solution sprayed to pharyngeal mucosa, 30 min after spray) was “significant increase; also recorded: exhibited an improving effect on dysphagia”, the water drinking frequency ([1]; 100 μL of 50 mM aqueous solution sprayed to pharyngeal mucosa, 30 min after spray) was “significant increase; also recorded: exhibited an improving effect on dysphagia” and the “water drinking frequency (dysphagia improving effect)” value ([1]; same dose as 100 μL of 50 μM aqueous solution, 30 min after administration) was “did not exert an influence”. For the same compound, the “water drinking frequency (dysphagia improving effect)” value ([1]; same dose as 100 μL of 50 mM aqueous solution, 30 min after administration) was “did not exert an influence” and the “decrease in swallowing reflex by FK888 administration” value (normal guinea pig; captopril aqueous solution sprayed to pharyngeal site 30 min before FK888) was “suppressed”.
In the case of NCCCC[C@H](N[C@@H](CCc1ccccc1)C(=O)O)C(=O)N1CCC[C@H]1C(=O)O [lisinopril], the “dose giving significant increase in water drinking frequency” value ([1]; 100 μL aqueous solution sprayed to pharyngeal mucosa) is reported as at least 50 nM, the water drinking frequency ([1]; 100 μL of 0.5 nM to 500 μM aqueous solution (pH 7.0) sprayed to pharyngeal mucosa) is reported as “dose-dependent increase” and the water drinking frequency ([1]; 100 μL of 50 nM aqueous solution sprayed to pharyngeal mucosa, 30 min after administration) is reported as “increase in water drinking frequency”. For the same compound, the “water drinking frequency (dysphagia improving effect)” value ([1]; same dose as the local administration (100 μL of 50 mM), 2 hours after administration) was “exerted no influence; also recorded: no dysphagia improving effect was observed”, the “water drinking frequency (dysphagia improving effect)” value [2] was “exhibited an improving effect on dysphagia” and the “vasopressor reaction by administration of angiotensin I (change in mean blood pressure)” value ([3]; 100 μL of 5 μM aqueous solution) was “had no influence”. For the same compound, the “vasopressor reaction by administration of angiotensin I (change in mean blood pressure)” value ([3]; 100 μL of 5 mM aqueous solution) was “suppressed a vasopressor reaction”.
With O=C(CCCN1CCC(O)(c2ccc(Cl)cc2)CC1)c1ccc(F)cc1 [haloperidol] the water drinking frequency (Hartley guinea pigs) was “significantly decreased”.
CN(Cc1ccccc1)C(=O)[C@H](Cc1ccc2ccccc2c1)NC(=O)[C@@H]1C[C@@H](O)CN1C(=O)c1cn(C)c2ccccc12 [FK888] was tested, and the “lower limit not influencing swallowing reflex” value ([1]; 100 μL local spray to pharyngeal mucosa) was 10 nM, the “increase in water drinking frequency by lisinopril (50 nM, 100 μL)” value ([1]; FK888 10 nM, 100 μL, local spray 15 min after lisinopril administration) was “almost completely suppressed” and the “swallowing reflex (water drinking reflection frequency)” value (normal guinea pig; FK888 10 μM, 50 μL/guinea pig, local spray to pharyngeal site) was “decrease in swallowing reflex”.
